# Source: patent US6107070A, “Human manganese superoxide dismutase proteins” (University of Florida, priority 1998, dated 2000)
# Residue numbers refer to the chain shown, from its start.
# Key:
# Type in all cases: biochemical
# [1] = target: T1, human manganese superoxide dismutase (hMn SOD) variant Q143N (Gln 143 replaced by Asn), SEQ ID NO:3 (Homo sapiens, UniProt P04179, Q167N); assay: Decay of superoxide catalyzed by Q143N hMnSOD, pulse radiolysis; details: FIG. 1; first-order fit, 35 μM enzyme, pH 9.6, 20° C.
# T1 construct: as a mature protein tagged with an extra Met at the amino terminus; made in house; host or cells: E. coli QC774 (SodA/SodB mutant), pTrc99A
# T1 sequence (P04179 25-222 Q167N): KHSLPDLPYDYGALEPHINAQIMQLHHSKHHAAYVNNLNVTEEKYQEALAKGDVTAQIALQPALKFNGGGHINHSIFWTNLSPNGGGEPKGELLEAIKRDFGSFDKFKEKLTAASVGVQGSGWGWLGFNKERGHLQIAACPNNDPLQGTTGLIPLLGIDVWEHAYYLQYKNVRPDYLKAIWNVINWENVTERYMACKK
# Description: The solutions contained 0.5 μM wild-type MnSOD or 35 μM Q143N hMnSOD and 50 μM EDTA, 10 mM sodium formate, and 2.0 mM sodium pyrophosphate and pH 9.6 and 20° C. The solid line for Q143N hMnSOD is least-squares fit to a first-order process corresponding to Kcat /Km =1×10^6 M^-1 s^-1.
# Experiments were carried out at the Center for Fast Kinetics Research at the University of Texas at Austin using a 4-Mev van der Graaff accelerator. A single high-dose electron pulse was used to generate superoxide radical anions from oxygen in acqueous solutions containing 10 mM sodium formate as hydroxyl radical scavenger (Schwartz, 1981) and 50 μM EDTA in addition to buffer and enzyme. All pulse radiolysis experiments were carried out at 20 ° C. The dismutation of O2^- was followed spectrophotometrically from its absorbance at 250 nm (ε=2000M^1 cm^1, Rabani and Nielson, 1969) with a path length of 2.5 cm. Progress curves for each set of 6 to 9 experiments were averaged. Exposure to ultraviolet radiation was minimized by opening a mechanical shutter a fraction of a second before each pulse.
# [2] = target: T2, human manganese superoxide dismutase (hMn SOD) variant Y34F (Tyr34Phe) (Homo sapiens, UniProt P04179, Y58F); assay: Disproportionation of superoxide by Y34F hMnSOD, Example 3 (Tables 4 and 5), 20° C.
# T2 construct: as a mature protein tagged with an extra Met at the amino terminus; made in house; host or cells: E. coli QC774 (SodA/SodB mutant), pTrc99A
# T2 sequence (P04179 25-222 Y58F): T1 sequence (P04179 25-222 Q167N) with Y34F, N143Q
# Description: (§1) Experiments were based on the stabilization of KO2 in aprotic solvent and the subsequent large dilution of this solution by an aqueous solution of enzyme in a stopped-flow apparatus, as described by McClune and Fee (1978). KO2 was dissolved in a mixture of dimethyl sulfoxide and […] (2:1 by volume; Aldrich, spectrophotometric grade) with solubility of KO2 enhanced with 18-crown-6 (Valentine and Curtis, 1975). The stopped-flow spectrophotometer (Kinetic Instruments, Ann Arbor, Mich.) was capable of efficient mixing of this solution with an acqueous solution of enzyme in buffer with a dead time between 1.5 and 2.0 ms. One drive syringe (capacity 50 μl) contained the aprotic solution of O2. This was diluted fifty-fold by the contents of a second syringe (capacity 2.5 ml) which contained enzyme, EDTA, and buffer. The decay of superoxide in initial velocity experiments and progress curves was monitored by its absorption at 250 to 300 nm. Stopped-flow experiments were carried out at […]. Four or more kinetic traces were averaged to reduce noise. Steady-state parameters were obtained by least-squares analysis of such data (Leatherbarrow (1987) "Enzfitter: a nonlinear regression data analysis program for the IBM PC" Elsevier BIOSOFT, Cambridge).
# (§2) In the present study, several novel hMnSOD proteins containing substitutions of His 30 (referring to the amino acid sequence of SEQ ID NO:2) were prepared by PCR site directed mutagenesis and purified by column chromatography, as described in the Materials and Methods section above, and as also described by Hsu et al. (1996) J. Biol. Chem. 271: 1768; and Hsieh et al. (1998) Biochemistry 37: 4731. In particular, His 30 was substituted with each of Ala, Asn, Ser and Gln. The resulting novel hMnSOD proteins containing a His 30 substitution were then assayed for enzymatic activity and product inhibition at 20° C. by measuring the absorbance of superoxide at 250 nm using stopped-flow spectrophotometry, as described above in the Materials and Methods section. […]
# [3] = target: T3, human manganese superoxide dismutase (hMn SOD) variant H30Q (His 30 replaced by Gln) (Homo sapiens, UniProt P04179, H54Q); assay: Disproportionation of superoxide by H30Q hMnSOD, stopped-flow, 20° C.; details: pH 9.6, 20° C.
# T3 construct: as a mature protein tagged with an extra Met at the amino terminus; made in house
# T3 sequence (P04179 25-222 H54Q): T1 sequence (P04179 25-222 Q167N) with H30Q, N143Q
# Description: as §1, §2
# [4] = target: T4, human manganese superoxide dismutase (hMn SOD) variant H30S (His 30 replaced by Ser) (Homo sapiens, UniProt P04179, H54S); assay: Disproportionation of superoxide by H30S hMnSOD, stopped-flow, 20° C.; details: pH 9.6, 20° C.
# T4 construct: as a mature protein tagged with an extra Met at the amino terminus; made in house
# T4 sequence (P04179 25-222 H54S): T1 sequence (P04179 25-222 Q167N) with H30S, N143Q
# Description: as §1, §2
# [5] = target: T5, human manganese superoxide dismutase (hMn SOD) variant H30A (His 30 replaced by Ala) (Homo sapiens, UniProt P04179, H54A); assay: Disproportionation of superoxide by H30A hMnSOD, stopped-flow, 20° C.; details: pH 9.6, 20° C.
# T5 construct: as a mature protein tagged with an extra Met at the amino terminus; made in house
# T5 sequence (P04179 25-222 H54A): T1 sequence (P04179 25-222 Q167N) with H30A, N143Q
# Description: as §1, §2
# [6] = Table 4, 20° C., pH 9.4 per footnote
compound,measurement,setting,value
[O]O [superoxide],kcat /Km,[1],1e+06 M⁻¹ s⁻¹
same,kcat,[2]; [6],3.3 ms^.1
same,kcat /Km,[2]; [6],870 μM^.1 S^.1
same,ko /[E] (rate constant for the zero-order region of catalysis),"[2]; Table 5, pH 9.6, 20° C.",88 S^.1
same,kcat,[3]; Table 4,1.0 ms^.1
same,kcat /Km,[3]; Table 4,43 μM^.1 S^.1
same,ko /[E] (rate constant for the zero-order region of catalysis),[3]; Table 5,510 S^.1
same,kcat,[4]; Table 4,1.8 ms^.1
same,kcat /Km,[4]; Table 4,170 μM^.1 S^.1
same,ko /[E] (rate constant for the zero-order region of catalysis),[4]; Table 5,"1,000 S^.1"
same,kcat,[5]; Table 4,1.9 ms^.1
same,kcat /Km,[5]; Table 4,20 μM^.1 S^.1
same,ko /[E] (rate constant for the zero-order region of catalysis),[5]; Table 5,610 S^.1
